Common to all, as to assay type: cell-based
The subject of assay [1] is Staphylococcus aureus ATCC29213. Nature of the assay: MIC, microbroth dilution. The note with it: Staphylococcus aureus ATCC29213, rifS; read-out: Antimicrobial activity (MIC). For orientation: Broth dilution looks for growth in wells or tubes with falling amounts of substance.
Assay [2] has as its system Staphylococcus aureus ATCC29213 rpoB^D417Y. Put plainly: microbe, parasite or virus in culture. The settings on record: Staphylococcus aureus ATCC29213 rpoB^D417Y, rifR; read-out: Antimicrobial activity (MIC). How it is done: (§1) Representative compounds were assayed for antimicrobial activity as follows: Minimum Inhibitory Concentrations (“MICs”) were determined by the microbroth dilution method as per NCCLS guidelines (National Committee for Clinical Laboratory Standards. 2000. Methods for dilution antimicrobial susceptibility tests for bacteria that grow aerobically, 5th ed. M7-A5. National Committee for Clinical Laboratory Standards, Wayne, Pa.), except that all growth incubations were conducted at 37° C. Bacterial cultures were tested in the following bacteriological media: S. aureus, S. epidermidis, and E. coli in Cation-Adjusted Mueller-Hinton Broth, S. pneumoniae in THY Broth supplemented with 1 mg/mL catalase under 5% CO2 atmosphere, S. pyogenes in THY Broth, E. faecalis in BHI Broth, H. influenzae in BHI Broth supplemented with 0.75 μL of 1 mg/mL NAD and 150 μL of 1 mg/ml hematin per 5 mL, and M. smegmatis in Middlebrook Broth plus ADC Enrichment.
(§2) S. aureus ATCC 29213 RpoB^H418Y is a rifampin-resistant strain with a mutation in the RpoB gene of RNA polymerase. […] S. aureus EN1252a gyrA^S84L grlA^S80F is a quinolone-resistant strain due to double gene mutations of DNA gyrase and topoisomerase IV.

Assay [3] concerns Staphylococcus aureus ATCC29213 rpoB^H418Y. Nature of the assay: microbe, parasite or virus in culture. The settings on record: Staphylococcus aureus ATCC29213 rpoB^H418Y, rifR; read-out: Antimicrobial activity (MIC). The protocol: as §1, §2
Assay [4] relates to Staphylococcus aureus EN1252a gyrA^S84L grlA^S80F. Nature of the assay: microbe, parasite or virus in culture. The settings on record: Staphylococcus aureus EN1252a gyrA^S84L grlA^S80F, cipR; read-out: Antimicrobial activity (MIC). How it is done: as §1, §2
The subject of assay [5] is Staphylococcus epidermidis ATCC12228. Put plainly: MIC, microbroth dilution. The note with it: Staphylococcus epidermidis ATCC12228, rifS; read-out: Antimicrobial activity (MIC).
Assay [6] concerns Streptococcus pneumoniae ATCC6303. Nature of the assay: MIC, microbroth dilution. The note with it: Streptococcus pneumoniae ATCC6303, rifS; read-out: Antimicrobial activity (MIC).
The test system of assay [7] is Streptococcus pyogenes ATCC19615. Put plainly: MIC, microbroth dilution. The note with it: Streptococcus pyogenes ATCC19615, rifS; read-out: Antimicrobial activity (MIC).
Assay [8] concerns Enterococcus faecalis ATCC29212. Nature of the assay: MIC, microbroth dilution. The note with it: Enterococcus faecalis ATCC29212, rifS; read-out: Antimicrobial activity (MIC).
The test system of assay [9] is Haemophilus influenzae ATCC10211. Put plainly: MIC, microbroth dilution. The settings on record: Haemophilus influenzae ATCC10211, rifS; read-out: Antimicrobial activity (MIC).
Assay [10] deals with Escherichia coli ATCC25922. Put plainly: MIC, microbroth dilution. The settings on record: Escherichia coli ATCC25922, rifS; read-out: Antimicrobial activity (MIC).
The subject of assay [11] is Mycobacterium smegmatis ATCC700084. Nature of the assay: MIC, microbroth dilution. The settings on record: Mycolicibacterium smegmatis; Mycobacterium smegmatis ATCC700084, rifS; read-out: Antimicrobial activity (MIC).

Five compounds from patent US7256187B2, “Rifamycin C-11 oxime derivatives effective against drug-resistant microbes” (Cumbre Pharmaceuticals Inc., priority 2004, dated 2007) can be followed below.

≈ marks a conversion by molar mass, not a printed value.

Consider `CO[C@H]1/C=C/O[C@@]2(C)Oc3c(C)c(O)c4c(c3/C2=N/OCCN(CCO)CCO)C(=O)C=C(NC(=O)/C(C)=C\C=C\[C@H](C)[C@H](O)[C@@H](C)[C@@H](O)[C@@H](C)[C@H](OC(C)=O)[C@@H]1C)C4=O` [Example 20, 11-Deoxy-11-{2-[bis-(2-hydroxy-ethyl)-amino]ethoxyimino}rifamycin S], for which the MIC in [1] is 0.004 to 0.5 µg/mL (≈ 0.00475 to 0.594 µM); in assay [2], 0.25 to 32 µg/mL (≈ 0.297 to 38 µM); in assay [3], 0.125 to 16 µg/mL (≈ 0.148 to 19 µM); in assay [4], 0.004 to 0.5 µg/mL (≈ 0.00475 to 0.594 µM); in [5], 0.0005 to 0.063 µg/mL (≈ 0.000594 to 0.0748 µM); in assay [6], 0.0002 to 0.125 µg/mL (≈ 0.000238 to 0.148 µM). Moreover, the MIC in [7] is 0.0005 to 0.063 µg/mL (≈ 0.000594 to 0.0748 µM); in assay [8], 2 to 32 µg/mL (≈ 2.38 to 38 µM); in assay [9] it was 0.03 to 2 µg/mL (≈ 0.0356 to 2.38 µM); in assay [10] it was 0.125 to 8 µg/mL (≈ 0.148 to 9.5 µM); in [11], 0.5 to 64 µg/mL (≈ 0.594 to 76 µM).
Regarding `CO[C@H]1/C=C/O[C@@]2(C)Oc3c(C)c(O)c4c(c3/C2=N/OCCN2CC(C)NC(C)C2)C(=O)C=C(NC(=O)/C(C)=C\C=C\[C@H](C)[C@H](O)[C@@H](C)[C@@H](O)[C@@H](C)[C@H](OC(C)=O)[C@@H]1C)C4=O` (stereo partly shown) [Example 21, 11-Deoxy-11-[2-(3,5-dimethyl-piperazin-1-yl)ethoxyimino]rifamycin S], the MIC in assay [1] lay in the range of 0.004 to 0.5 µg/mL (≈ 0.0047 to 0.588 µM); in assay [2], 0.25 to 32 µg/mL (≈ 0.294 to 37.6 µM); in assay [3], 0.125 to 16 µg/mL (≈ 0.147 to 18.8 µM); in assay [4], 0.004 to 0.5 µg/mL (≈ 0.0047 to 0.588 µM); in [5] it was 0.0005 to 0.063 µg/mL (≈ 0.000588 to 0.074 µM); in assay [6] it was 0.0002 to 0.125 µg/mL (≈ 0.000235 to 0.147 µM). Moreover, the MIC was 0.0005 to 0.063 µg/mL (≈ 0.000588 to 0.074 µM) in [7]; 2 to 32 µg/mL (≈ 2.35 to 37.6 µM) in assay [8]; 0.03 to 2 µg/mL (≈ 0.0353 to 2.35 µM) in assay [9]; 0.125 to 8 µg/mL (≈ 0.147 to 9.4 µM) in assay [10]; 0.5 to 64 µg/mL (≈ 0.588 to 75.2 µM) in assay [11].
In the case of `CO[C@H]1/C=C/O[C@@]2(C)Oc3c(C)c(O)c4c(c3/C2=N/OCCN2CCN(C)CC2)C(=O)C=C(NC(=O)/C(C)=C\C=C\[C@H](C)[C@H](O)[C@@H](C)[C@@H](O)[C@@H](C)[C@H](OC(C)=O)[C@@H]1C)C4=O` [Example 22, 11-Deoxy-11-[2-(4-methylpiperazin-1-yl)ethoxyimino]rifamycin S], the MIC fell in the range of 0.004 to 0.5 µg/mL (≈ 0.00478 to 0.597 µM) in assay [1]; 0.25 to 32 µg/mL (≈ 0.299 to 38.2 µM) in [2]; 0.125 to 16 µg/mL (≈ 0.149 to 19.1 µM) in assay [3]; 0.004 to 0.5 µg/mL (≈ 0.00478 to 0.597 µM) in [4]; 0.0005 to 0.063 µg/mL (≈ 0.000597 to 0.0753 µM) in [5]; 0.0002 to 0.125 µg/mL (≈ 0.000239 to 0.149 µM) in assay [6]. For the same compound, the MIC lay within 0.0005 to 0.063 µg/mL (≈ 0.000597 to 0.0753 µM) in assay [7]; 2 to 32 µg/mL (≈ 2.39 to 38.2 µM) in [8]; 0.03 to 2 µg/mL (≈ 0.0358 to 2.39 µM) in assay [9]; 0.125 to 8 µg/mL (≈ 0.149 to 9.56 µM) in [10]; 0.5 to 64 µg/mL (≈ 0.597 to 76.5 µM) in assay [11].
For the compound `CO[C@H]1/C=C/O[C@@]2(C)Oc3c(C)c(O)c4c(c3/C2=N/OCCN2CCC(O)CC2)C(=O)C=C(NC(=O)/C(C)=C\C=C\[C@H](C)[C@H](O)[C@@H](C)[C@@H](O)[C@@H](C)[C@H](OC(C)=O)[C@@H]1C)C4=O` [Example 23, 11-Deoxy-11-[2-(4-hydroxypiperadin-1-yl)ethoxyimino]rifamycin S], the MIC lay within 0.004 to 0.5 µg/mL (≈ 0.00477 to 0.597 µM) in assay [1]; 0.25 to 32 µg/mL (≈ 0.298 to 38.2 µM) in assay [2]; 0.125 to 16 µg/mL (≈ 0.149 to 19.1 µM) in [3]; 0.004 to 0.5 µg/mL (≈ 0.00477 to 0.597 µM) in [4]; 0.0005 to 0.063 µg/mL (≈ 0.000597 to 0.0752 µM) in assay [5]; 0.0002 to 0.125 µg/mL (≈ 0.000239 to 0.149 µM) in assay [6]. Further, the MIC in assay [7] lay within 0.0005 to 0.063 µg/mL (≈ 0.000597 to 0.0752 µM); in [8], 2 to 32 µg/mL (≈ 2.39 to 38.2 µM); in assay [9], 0.03 to 2 µg/mL (≈ 0.0358 to 2.39 µM); in [10] it was 0.125 to 8 µg/mL (≈ 0.149 to 9.55 µM); in assay [11], 0.5 to 64 µg/mL (≈ 0.597 to 76.4 µM).
With `CO[C@H]1/C=C/O[C@@]2(C)Oc3c(C)c(O)c4c(c3/C2=N/OCCN2CCOCC2)C(=O)C=C(NC(=O)/C(C)=C\C=C\[C@H](C)[C@H](O)[C@@H](C)[C@@H](O)[C@@H](C)[C@H](OC(C)=O)[C@@H]1C)C4=O` [Example 24], the MIC in assay [1] fell in the range of 0.004 to 0.5 µg/mL (≈ 0.00485 to 0.607 µM); in [2] it was 0.25 to 32 µg/mL (≈ 0.303 to 38.8 µM); in assay [3] it was 0.125 to 16 µg/mL (≈ 0.152 to 19.4 µM); in assay [4], 0.004 to 0.5 µg/mL (≈ 0.00485 to 0.607 µM); in [5], 0.0005 to 0.063 µg/mL (≈ 0.000607 to 0.0765 µM); in assay [6], 0.0002 to 0.125 µg/mL (≈ 0.000243 to 0.152 µM). Besides, the MIC in assay [7] is 0.0005 to 0.063 µg/mL (≈ 0.000607 to 0.0765 µM); in assay [8] it was 2 to 32 µg/mL (≈ 2.43 to 38.8 µM); in assay [9], 0.03 to 2 µg/mL (≈ 0.0364 to 2.43 µM); in [10], 0.125 to 8 µg/mL (≈ 0.152 to 9.71 µM); in assay [11], 0.5 to 64 µg/mL (≈ 0.607 to 77.7 µM).
